This is an account of results in patent US8288549B2, “Glycine B antagonist” (Merz Pharma GmbH & Co. KGaA, priority 2008, dated 2012).

The target in data set [1] is T1, NMDA receptor glycine B site (Rattus norvegicus, UniProt P35439).
T1 construct: Hippocampi are then isolated from the brains of at least 8 embryos after decapitation; endogenous in cells; host or cells: primary cultured hippocampal neurons from E20 Sprague-Dawley rat embryos, 11-15 DIV
Kind of data set: Whole cell patch-clamp recordings in cultured rat hippocampal neurons (NMDA/D-Serine evoked currents). Type of data set: cell-based. The following applies: NMDA (200 μM) and D-Serine (1 μM), holding potential −70 mV, read-out: NMDA-PC-r-HIC-NAM - IC50. The protocol:
Antagonistic potencies of the test compounds are functionally evaluated using electrophysiological whole cell patch-clamp recordings and/or fluorometric intracellular Ca^2+-imaging (FLIPR) screens.
Cell preparation is performed as described by Parsons, et al. (Neuropharmacology, 1998, 37(6), 719-727). The female Sprague-Dawley rat is anaesthetised by placing in a saturated CO2-euthanasia chamber under further quiet CO2-influx. Under these conditions the rat loses consciousness after a few seconds and is then sacrificed by cervical dislocation. After opening the abdominal cavity, embryos (E20) are removed and stored in ice cold Ca^2+- and Mg^2+-free Hank's Buffered Salt Solution (pH 7.3), containing 4 g/l glucose (HBSS-CMF). Hippocampi are then isolated from the brains of at least 8 embryos after decapitation, transferred into ice cold HBSS-CMF and washed 3 to 4 times.
Hippocampi are pre-incubated for 8 min with a 0.66% trypsin (Sigma-Aldrich) and 0.1% (20 U/ml) DNAase solution (Sigma-Aldrich) in Ca^2+-free Phosphate Buffered Saline (PBS-CF) and washed 3 times with HBSS-CMF. Cells are then mechanically dissociated by trituration in a PBS-CF solution containing 0.05% (10 U/ml) DNAase and 0.3% of the trypsin inhibitor ovomucoid (all from Sigma-Aldrich). The cells are then centrifuged at 180×g for 10 minutes, and the cell pellet re-suspended in basal Minimum essential medium (MEM, Invitrogen, Karlsruhe, Germany), again carefully triturated to ensure maximal dissociation and finally plated in the flexiPERM inserts (Thermo Fisher Scientific, Langenselbold, Germany) at a density of 15×10^3 cells/cm^2 (0.5 ml/insert) onto poly-DL-ornithine (Sigma) and mouse laminin (Invitrogen) pre-coated plastic petri dishes. After 1 hour the cells become attached to the bottom of the dish and the inserts may be removed. The cells are then nourished with 2 ml MEM supplemented with 5% foetal calf serum (FCS) and 5% horse serum and incubated at 37° C. with 95% air and 5% CO2 at 95% humidity. After 4 days in vitro (DIV) further glial mitosis is inhibited by adding 10 μl of AraC (5 μM endconcentration). The medium is completely exchanged after an additional 2 DIV and again, but only partly (50%), after 8 DIV. The cells are used for electrophysiological recordings after 11-15 DIV.
Cells are visualised using an inverted microscope and selected for patching based upon their position and morphology. Voltage clamp recordings are made in the whole cell configuration of the patch clamp technique at a holding potential of −70 mV with the aid of an EPC-10 amplifier in combination with pipette manipulator. Patch clamp pipettes are pulled from borosilicate glass using a horizontal puller (P-97 Puller, Sutter Instruments, USA) and, when filled with intracellular solution, have resistances of 1-4 MΩ.
Solutions are delivered via a home-made gravity driven very fast perfusion system (<10 ms) including valves to switch flow on and off in combination with a stepper motor-driven double-barreled theta glass application pipette in order to expose cells to either agonist-free or agonist-containing solutions in presence or absence of antagonist.
The intracellular solution used consists of: 120 mM CsCl, 10 mM EGTA, 1 mM MgCl2, 200 μM CaCl2, 10 mM glucose and 22 mM tetraethyl ammonium chloride (TEA-CL). The corresponding extracellular bath solution contains: 140 mM NaCl, 3 mM KCl, 10 mM glucose, 10 mM HEPES, 1.5 mM CaCl2 and 4.5 mM sucrose (all from Sigma-Aldrich) pH 7.3, and is supplemented with 0.3 μM tetrodotoxin (TTX, Tocris, Bristol, U.K.) to block voltage-activated sodium channels and 0.25 μM bicuculline (Sigma-Aldrich) to block GABAA receptors. […]
In general terms: Patch clamp records ionic current or voltage across a cell membrane.

Data set [2] concerns the target T2, glycine binding pocket of the NMDA receptor (Rattus norvegicus, UniProt P35439).
T2 construct: The cortex is dissected out and processed as described by Parsons, et al; from tissue; host or cells: rat cerebral cortex membranes (male Sprague-Dawley)
The experiment in a line: [3H]-MDL-105,519 displacement studies on rat cortical membranes. The following applies: displacement of 2 nM [3H]-MDL-105,519, rat cortical membranes, 4° C., 1 h; read-out: NMDA-MDL 105519-r-CTX - IC50. Here is the method:
[^3]MDL-105,519 Displacement Studies
For the evaluation of the binding affinity of the test compounds on the glycine binding pocket of the NMDA receptor, [^3H]-MDL-105,519 (GE Healthcare, Freiburg, Germany) displacement studies are performed using a 96-well plate robotic platform. MDL-105,519 (Baron et al., J Pharmacol Exp Ther 1996, 279(1), 62-68; Baron et al., European Journal of Pharmacology, 1997, 323(2-3), 181-192; Hoffner & Wanner, Neuroscience Letters, 1997, 226(2), 79-82) is a selective, high affinity antagonist at the NMDA receptor glycine site.
Tissue preparation is performed according to Foster & Wong (Br J Pharmacol, 1987, 91, 403-409) with some modifications. Anaesthetised male Sprague-Dawley rats (200-250 g, Janvier, Le Genest-Isle, France) are decapitated and their brains removed rapidly. The cortex is dissected out and processed as described by Parsons, et al. (J Pharmacol Exp Ther, 1997, 283(3), 1264-1275). For isolation of the cell membranes, the cortices are homogenized in 20 volumes of ice-cold 0.32 M sucrose (Sigma-Aldrich, Taufkirchen, Germany) using a glass-Teflon homogenizer. The homogenate is centrifuged at 1000×g for 10 minutes, the pellet is discarded and the supernatant centrifuged at 20,000×g for 20 minutes. The resulting pellet is re-suspended in 20 volumes of distilled water and centrifuged for 20 minutes at 8000×g. The supernatant and the buffy coat are then centrifuged three times (48,000×g for 20 minutes) in the presence of 50 mM Tris-HCl, pH 8.0 (assay buffer). All centrifugation steps are carried out at 4° C. After resuspension in 5 volumes of 50 mM Tris-HCl, pH 7.5, the membrane suspension is frozen rapidly at −80° C. On the day of assay, the membranes are thawed and washed four times by resuspension in 50 mM Tris-HCl, pH 7.5, and centrifugation at 48,000×g for 20 minutes. The final pellet is suspended in assay buffer. The amount of protein in the final membrane preparation is determined according to the method of Lowry, et al. (J. Biological Chemistry, 1951, 193, 256-275) with some modifications (Hartree, Analytical Biochemistry, 1972, 48, 422-427). The final protein concentration used for our studies is 400 μg/ml.
A robotic system designed for binding assays (Tecan Deutschland GmbH, Crailsheim, Germany) is loaded with the membrane solution, solutions for bound control (buffer/DMSO 20%), unlabeled glycine (1 mM) for evaluation of non-specific binding, all compounds to be tested (at 20-fold concentrations), radioligand and respective 96-well plates.
Before performing displacement studies, saturation experiments are performed to determine the equilibrium dissociation constant (Kd) of [^3H]-MDL-105,519, which is a parameter for the affinity of the radioligand to the binding site. The protein/receptor concentration is held constant whereas the amount of specific bound radioligand is determined using increasing concentrations of ligand.
On the basis of the saturation experiments, a final [^3H]-MDL-105,519 concentration of 2 nM is selected. Firstly, the assay plates are loaded with membrane solution and are shaken at 4° C. The mother plates are then prepared by pipetting the compounds (n=4) into assay buffer/20% DMSO to obtain the desired final concentrations. After transferring radioligand into the assay plates, the compounds are added (including the bound and the non-specific binding control). The final DMSO concentration is 1%. The assay plates are incubated and shaken at 4° C. for 1 h, before the mixture is exhausted as rapidly as possible via a vacuum manifold using the Multiscreen HTS glass fibre (type B) filter plates (Millipore, Schwalbach, Germany) under a constant vacuum of 450 mbar. The membranes are washed four times with cold assay buffer (100 μL). […]

`O=C(O)c1cc2cc(Cl)ccc2nc1NC(Cc1c[nH]c2ccc(F)cc12)C(=O)O` (stereo not shown) [Example 25, 2-[1-Carboxy-2-(5-fluoro-1H-indol-3-yl)-ethylamino]-6-chloro-quinoline-3-carboxylic acid]: the IC50 in data set [1] came out at 930 nM; in data set [2] it was 2120 nM. `Cc1cc(Cl)cc2cc(C(=O)O)c(NC(Cc3ccccc3)C(=O)O)nc12` (stereo not shown) [Example 95, 2-(1-Carboxy-2-phenyl-ethylamino)-6-chloro-8-methylquinoline-3-carboxylic acid]: the melting point was > 145 °C (dec.). Also, the IC50 in data set [2] was 2290 nM. `O=C(O)c1cc2cc(Cl)ccc2nc1N[C@@H](Cc1ccc(O)c([N+](=O)[O-])c1)C(=O)O` [Example 41, 2-[(S)-1-Carboxy-2-(4-hydroxy-3-nitro-phenyl)-ethylamino]-6-chloro-quinoline-3-carboxylic acid]: the figures for the half-inhibitory concentration (IC50) in data set [1] and in data set [2] were 1030 nM and 1870 nM, respectively. `Cc1cc(Cl)cc2cc(C(=O)O)c(NC(Cc3c[nH]c4ccccc34)C(=O)O)nc12` (stereo not shown) [Example 97, 2-[1-Carboxy-2-(1H-indol-3-yl)-ethylamino]-6-chloro-8-methylquinoline-3-carboxylic acid]: the melting point is > 160 °C (dec.). The concentration for half-maximal inhibition (IC50) in data set [2] is 2490 nM.

For `O=C(O)c1cc2cc(Cl)ccc2nc1NC(Cc1ccc(Nc2ccnc3ccccc23)cc1)C(=O)O` (stereo not shown) [Example 104, 2-{1-Carboxy-2-[4-(quinolin-4-ylamino)-phenyl]-ethylamino}-6-chloro-quinoline-3-carboxylic acid], the melting point was > 200 °C (dec.). In data set [2], the IC50 was determined as 700 nM. `O=C(O)c1cc2cc(Br)cc(Br)c2nc1NC(Cc1ccccc1)C(=O)O` (stereo not shown) [Example 56, 6,8-Dibromo-2-(1-carboxy-2-phenyl-ethylamino)-quinoline-3-carboxylic acid] displayed a melting point of 115 to 117 °C. Further, the IC50 in data set [1] came to 1240 nM. Moreover, in data set [2], the IC50 was 1730 nM. In turn, `O=C(O)c1cc2cc(Cl)ccc2nc1N[C@@H](Cc1ccccc1)C(=O)O` [Example 1, 2-((S)-1-Carboxy-2-phenyl-ethylamino)-6-chloro-quinoline-3-carboxylic acid] displayed a melting point of 153 to 159 °C. In addition, in data set [2], the IC50 is 410 nM. On to `O=C(O)c1cc2cc(Cl)c(Cl)cc2nc1N[C@@H](Cc1ccccc1)C(=O)O` [Example 32, 2-((S)-1-Carboxy-2-phenyl-ethylamino)-6,7-dichloro-quinoline-3-carboxylic acid], for which the IC50 in data set [2] is 5800 nM.

Consider `O=C(O)c1cc2cc(Cl)ccc2nc1N[C@@H](Cc1ccc(Oc2ccncc2Br)cc1)C(=O)O` [Example 144, 2-{(S)-2-[4-(3-Bromo-pyridin-4-yloxy)-phenyl]-1-carboxy-ethylamino}-6-chloro-quinoline-3-carboxylic acid], for which the IC50 in data set [2] is 840 nM.

For the molecule `O=C(O)c1cc2cc(Cl)ccc2nc1N[C@@H](CC1CCCCC1)C(=O)O` [Example 35, 2-((S)-1-Carboxy-2-cyclohexyl-ethylamino)-6-chloro-quinoline-3-carboxylic acid], in data set [2], the IC50 came out at 3300 nM.

Consider `O=C(O)c1cc2cc(Cl)ccc2nc1N[C@@H](Cc1ccncc1)C(=O)O` [Example 55, 2-((S)-1-Carboxy-2-pyridin-4-yl-ethylamino)-6-chloro-quinoline-3-carboxylic acid], for which the melting point is 155 to 158 °C (dec.). The concentration for half-maximal inhibition (IC50) in data set [2] was 4390 nM. With `O=C(O)c1cc2cc(Cl)ccc2nc1N[C@@H](Cc1cccs1)C(=O)O` [Example 156, 2-((S)-1-Carboxy-2-thiophen-2-yl-ethylamino)-6-chloro-quinoline-3-carboxylic acid], the melting point was > 250 °C (dec.). Also, the IC50 in data set [2] amounted to 1910 nM.

As a reminder, the IC50 is the concentration at which inhibition is half-maximal. What is called melting point is the temperature of the solid-liquid transition.
